Measurements taken from US20230042599A1, “CELLULOSIC COMPOUNDS AND AGRICULTURAL USES THEREOF” (HELIAE DEVELOPMENT, LLC, priority 2021, published 2023).

How the values were obtained:
[1] = system: co-culture of Gram-negative Kosakonia pseudosacchari strain JM-387 and Pseudomonas aylmerense strain S1E40; assay: Desiccation resistance (viability, CFU) of a bacterial co-culture mixed with protectant agents; format: cell-based; settings: after 3, 5 and 7 days of desiccation stress, protectants at 1% (whole broth and cell pellet undiluted)
[2] = system: rifampicin-resistant strain of a Gram-negative Kosakonia sp. bacterium; assay: Desiccation resistance (viability, CFU) of Kosakonia sp. cells mixed with protectant agents and dried in 96-well plates; format: cell-based; settings: after 5 days and 7 days of desiccation stress; protectants at 1% or 0.5% (whole broth and cell pellet undiluted or 2x dilution)
Source text: A rifampicin-resistant strain of a Gram-negative Kosakonia sp. bacterium was mixed with water (untreated control or “UTC”), trehalose, carboxymethylcellulose (“CMC”), methylcellulose (“MC”), extracellular polymeric substance from Parachlorella kessleri Accession No. NCMA 202103001 (“EPS”), sodium alginate (“Na-Alginate”), Parachlorella kessleri Accession No. NCMA 202103001 whole broth (“3001 Broth”), or Parachlorella kessleri Accession No. NCMA 202103001 cell pellet after centrifugation (“3001 Pellet”) in 96-well plates. Each of the protectant agents was added undiluted (i.e., at a 1× dilution) or at a 2× dilution (i.e., at […] to 1 part protectant) for whole broth and cell pellets or at a concentration of 1% (i.e., 1 g/100 mL) or 0.5% (i.e., 0.5 g/100 mL) for all other protectants. […]
The liquid medium in the plates was allowed to dry at room temperature inside a desiccation chamber for several days to create desiccation stress in the bacterial cell cultures. […] The bacterial cells were evaluated for survival and growth after 5 days of desiccation stress and after 7 days of desiccation stress.
The colony forming unit (CFU) data in these figures were generated by counting the number of colonies on each spot (see spots on representative plates shown in FIGS. 2A, 2B, and 2C) and using the following formula for quantifying viable cell density: […]

With `OC[C@H]1O[C@H](O[C@H]2O[C@H](CO)[C@@H](O)[C@H](O)[C@H]2O)[C@H](O)[C@@H](O)[C@@H]1O` [Trehalose] the “protective effect on the Gram-negative bacterial cells (viability after desiccation stress)” value [1] was “demonstrated a protective effect” and the “protective effect on the Kosakonia sp. cells (viability after desiccation stress)” value [2] was “demonstrated a protective effect”.
